According to patent US10227331B2 (priority 2015, dated 2019):
pIC50: −log10 of the molar value. Structures can show the parent of a compound that is named as a salt. Where two headings read alike, the source gives them in different places.

Tests used:
[1] = tested on: P. aeruginosa expressing IMP-1, efflux+ (MB9798); format: cell-based, Pseudomonas aeruginosa; conditions: for P. aeruginosa expressing IMP-1, efflux+ (MB9798) MITC95: imipenem at 2 μg/mL, in the presence of a class A, C, D serine β-lactamase inhibitor closely related to relebactam; for Efflux ratio: ratio MITC95 PA_9798/MITC95 PA_9799
From the text: (§1) The strain background is Pseudomonas aeruginosa PAO1.

[2] = tested on: Serratia marcescens expressing IMP-1 (CL5741); format: cell-based; conditions: with imipenem 1 μg/ml, 95% inhibition of bacterial growth; for Serratia marcescens MITC95: IMP-1 (CL5741)
How it was run: (§2)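 Colonies from overnight 35 °C blood-agar cultures were suspended in saline, diluted 1:100 into 1.1× CAMHB and exposed to test compound with or without imipenem at 1 μg/ml. After 22–24 h at 35 °C, absorbance was read to find the concentration restoring imipenem susceptibility.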

[3] = tested on: Klebsiella pneumoniae expressing VIM-1 (IHMA599644); format: cell-based; conditions: with imipenem 1 μg/ml, 95% inhibition of bacterial growth; for Klebsiella pneumoniae MITC95: VIM-1 (IHMA599644)
How it was run: as §2

[4] = tested on: Escherichia coli expressing NDM-1 (CLB30005, CLB30016); format: cell-based; conditions: with imipenem 1 μg/ml, 95% inhibition of bacterial growth; for Escherichia coli MITC95: NDM-1 (CLB30016)
How it was run: as §2

[5] = tested on: P. aeruginosa expressing IMP-1, efflux− (MB9799); assay: Efflux: concentration of MBL inhibitor which restores susceptibility to imipenem; format: cell-based, Pseudomonas aeruginosa; conditions: imipenem at 2 μg/mL, in the presence of a class A, C, D serine β-lactamase inhibitor closely related to relebactam
From the text: as §1

[6] = molecular target: IMP-1 (Serratia marcescens, UniProt P52699); assay: biochemical; format: biochemical
How it was run: (§3)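 Inhibitor was mixed with the metallo-β-lactamase and CCF2-FA. After 2 hours at 25° C, fluorescence of the coumarin–fluorescein cephalosporin substrate was read. IC50 was calculated with a 4-parameter fit.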

[7] = molecular target: NDM-1 (Klebsiella pneumoniae, UniProt C7C422); assay: biochemical; format: biochemical; conditions: CCF2-FA substrate, 2 hours at 25° C; read-out: NDM-1 IC50
How it was run: as §3

[8] = molecular target: VIM-1 (Pseudomonas aeruginosa (strain ATCC 15692 / DSM 22644 / CIP 104116 / JCM 14847 / LMG 12228 / 1C / PRS 101 / PAO1), UniProt A0A0F7KYQ8); assay: biochemical; conditions: CCF2-FA substrate, 2 hours at 25° C
How it was run: as §3

[9] = CCF2-FA substrate, 2 hours at 25° C, read-out: IMP-1 IC50

Sequence of NDM-1 (C7C422 whole entry, looked up, species assumed): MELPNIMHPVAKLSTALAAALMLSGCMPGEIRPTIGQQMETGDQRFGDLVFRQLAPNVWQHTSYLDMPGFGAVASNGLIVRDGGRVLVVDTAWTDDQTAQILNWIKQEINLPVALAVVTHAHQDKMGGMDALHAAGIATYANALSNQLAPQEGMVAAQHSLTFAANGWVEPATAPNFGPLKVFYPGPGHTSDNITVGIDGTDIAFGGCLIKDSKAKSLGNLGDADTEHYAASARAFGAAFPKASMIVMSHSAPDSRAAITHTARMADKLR
Sequence of IMP-1 (P52699 whole entry, looked up, species assumed): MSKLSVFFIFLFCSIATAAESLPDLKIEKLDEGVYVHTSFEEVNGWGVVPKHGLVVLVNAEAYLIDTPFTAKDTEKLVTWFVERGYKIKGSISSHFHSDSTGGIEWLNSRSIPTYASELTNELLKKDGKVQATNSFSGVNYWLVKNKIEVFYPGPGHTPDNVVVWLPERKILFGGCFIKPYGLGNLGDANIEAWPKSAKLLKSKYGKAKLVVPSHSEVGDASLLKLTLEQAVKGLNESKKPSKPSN

Nc1nc2c(-c3ccc(S(=O)(=O)C4CCNCC4)c(S(N)(=O)=O)c3-c3nn[nH]n3)cccc2[s+]1[O-] (stereo not drawn) [Example 316, 3-(2-amino-1-oxidobenzo[d]thiazol-4-yl)-6-(piperidin-4-ylsulfonyl)-2-(2H-tetrazol-5-yl)benzenesulfonamide]
P. aeruginosa expressing IMP-1, efflux+ (MB9798) MITC95 [1]: 6.25 µM | Efflux ratio [1]: 1.00 | Serratia marcescens MITC95 [2]: 12.5 µM | Klebsiella pneumoniae MITC95 [3]: 12.5 µM | Escherichia coli MITC95 [4]: 6.25 µM | P. aeruginosa expressing IMP-1, efflux− (MB9799) MITC95 [5]: 6.25 µM | pIC50 [6, 9]: 9.08 | pIC50 [7]: 9.55 | pIC50 [8]: 9.11

NCCS(=O)(=O)c1ccc(-c2cncc3sc(N)nc23)c(-c2nn[nH]n2)c1S(N)(=O)=O [Example 81, 6-((2-aminoethyl)sulfonyl)-3-(2-aminothiazolo[5,4-c]pyridin-7-yl)-2-(2H-tetrazol-5-yl)benzenesulfonamide hydrochloride]
P. aeruginosa expressing IMP-1, efflux+ (MB9798) MITC95 [1]: 0.7813 µM | Efflux ratio [1]: 1.00 | Serratia marcescens expressing IMP-1 (CL5741) MITC95 [2]: 1.563 µM | Klebsiella pneumoniae expressing VIM-1 (IHMA599644) MITC95 [3]: 3.125 µM | Escherichia coli expressing NDM-1 (CLB30016) MITC95 [4]: 0.7813 µM | P. aeruginosa expressing IMP-1, efflux− (MB9799) MITC95 [5]: 0.7813 µM | pIC50 [6]: 9.57 | pIC50 [7]: 9.54 | pIC50 [8]: 9.45

Cc1ccc(-c2ccc(S(=O)(=O)[C@@H]3CCNC3)c(S(N)(=O)=O)c2-c2nn[nH]n2)c2nc(N)sc12 [Example 187, 3-(2-amino-7-methylbenzo[d]thiazol-4-yl)-6-((R)-pyrrolidin-3-ylsulfonyl)-2-(2H-tetrazol-5-yl)benzenesulfonamide]
P. aeruginosa expressing IMP-1, efflux+ (MB9798) MITC95 [1]: 1.563 µM | Efflux ratio [1]: 2.00 | Serratia marcescens expressing IMP-1 (CL5741) MITC95 [2]: 0.7813 µM | Klebsiella pneumoniae expressing VIM-1 (IHMA599644) MITC95 [3]: 1.563 µM | Escherichia coli expressing NDM-1 (CLB30016) MITC95 [4]: 0.7813 µM | P. aeruginosa expressing IMP-1, efflux− (MB9799) MITC95 [5]: 0.7813 µM | pIC50 [6, 9]: 10.12 | pIC50 [7]: 10.16 | pIC50 [8]: 9.80

NC[C@@H](O)CS(=O)(=O)c1ccc(-c2ccc(N)nc2)c(-c2nn[nH]n2)c1S(N)(=O)=O [Example 364, (R)-6-((3-amino-2-hydroxypropyl)sulfonyl)-3-(6-aminopyridin-3-yl)-2-(2H-tetrazol-5-yl) benzenesulfonamide]
P. aeruginosa expressing IMP-1, efflux+ (MB9798) MITC95 [1]: 0.7813 µM | Efflux ratio [1]: 1.00 | Serratia marcescens MITC95 [2]: 0.9766 µM | Klebsiella pneumoniae MITC95 [3]: 1.563 µM | Escherichia coli MITC95 [4]: 0.3418 µM | P. aeruginosa expressing IMP-1, efflux− (MB9799) MITC95 [5]: 0.7813 µM | pIC50 [6, 9]: 9.31 | pIC50 [7]: 9.10 | pIC50 [8]: 9.06

NS(=O)(=O)c1c([S+]([O-])C2CCNCC2)ccc(-c2ccc(C3CCNCC3)cc2)c1-c1nnn[nH]1 (stereo not drawn) [Example 227, 4′-(piperidin-4-yl)-4-(piperidin-4-ylsulfinyl)-2-(1H-tetrazol-5-yl)-[1,1′-biphenyl]-3-sulfonamide]
P. aeruginosa expressing IMP-1, efflux+ (MB9798) MITC95 [1]: 3.125 µM | Efflux ratio [1]: 2.00 | Serratia marcescens expressing IMP-1 (CL5741) MITC95 [2]: 6.25 µM | Klebsiella pneumoniae expressing VIM-1 (IHMA599644) MITC95 [3]: 6.25 µM | Escherichia coli expressing NDM-1 (CLB30016) MITC95 [4]: 3.125 µM | P. aeruginosa expressing IMP-1, efflux− (MB9799) MITC95 [5]: 1.563 µM | pIC50 [6, 9]: 8.23 | pIC50 [7]: 8.71 | pIC50 [8]: 8.93

NS(=O)(=O)c1c(S(=O)(=O)C2CNC2)ccc(-c2ccnc(N3CCNC3=O)c2)c1-c1nnn[nH]1 [Example 343, 6-(Azetidin-3-ylsulfonyl)-3-(2-(2-oxoimidazolidin-1-yl)pyridin-4-yl)-2-(1H-tetrazol-5-yl)benzenesulfonamide]
P. aeruginosa expressing IMP-1, efflux+ (MB9798) MITC95 [1]: 25 µM | Efflux ratio [1]: 15.99 | Serratia marcescens MITC95 [2]: 3.125 µM | Klebsiella pneumoniae MITC95 [3]: 6.25 µM | Escherichia coli MITC95 [4]: 3.125 µM | P. aeruginosa expressing IMP-1, efflux− (MB9799) MITC95 [5]: 1.563 µM | pIC50 [6, 9]: 8.72 | pIC50 [7]: 9.29 | pIC50 [8]: 9.70

NS(=O)(=O)c1c(S(=O)(=O)C2CNC2)ccc([C@H]2CC[C@H](N)CC2)c1-c1nnn[nH]1 [Example 212, 3-((1r,4r)-4-aminocyclohexyl)-6-(azetidin-3-ylsulfonyl)-2-(1H-tetrazol-5-yl) benzenesulfonamide]
P. aeruginosa expressing IMP-1, efflux+ (MB9798) MITC95 [1]: 1.563 µM | Efflux ratio [1]: 2.00 | Serratia marcescens expressing IMP-1 (CL5741) MITC95 [2]: 1.563 µM | Klebsiella pneumoniae expressing VIM-1 (IHMA599644) MITC95 [3]: 1.563 µM | Escherichia coli expressing NDM-1 (CLB30016) MITC95 [4]: 0.7813 µM | P. aeruginosa expressing IMP-1, efflux− (MB9799) MITC95 [5]: 0.7813 µM | pIC50 [6, 9]: 7.52 | pIC50 [7]: 7.95 | pIC50 [8]: 9.06

Nc1cncc(-c2ccc(S(=O)(=O)C3CNC3)c(S(N)(=O)=O)c2-c2nnn[nH]2)c1.O=C(O)C(F)(F)F [Example 112, 3-((4-(5-aminopyridin-3-yl)-2-sulfamoyl-3-(1H-tetrazol-5-yl)phenyl)sulfonyl)azetidin-1-ium 2,2,2-trifluoroacetate]
P. aeruginosa expressing IMP-1, efflux+ (MB9798) MITC95 [1]: 12.5 µM | Efflux ratio [1]: 4.00 | Serratia marcescens expressing IMP-1 (CL5741) MITC95 [2]: 3.125 µM | Klebsiella pneumoniae expressing VIM-1 (IHMA599644) MITC95 [3]: 6.25 µM | Escherichia coli expressing NDM-1 (CLB30016) MITC95 [4]: 3.125 µM | P. aeruginosa expressing IMP-1, efflux− (MB9799) MITC95 [5]: 3.125 µM | pIC50 [6, 9]: 8.06 | pIC50 [7]: 8.60 | pIC50 [8]: 8.75

NCCS(=O)(=O)c1ccc(-c2cnc(N)c(C(=O)N[C@H]3CCNC3)c2)c(-c2nn[nH]n2)c1S(N)(=O)=O [Example 336, (S)-2-Amino-5-(4-((2-aminoethyl)sulfonyl)-3-sulfamoyl-2-(2H-tetrazol-5-yl)phenyl)-N-(pyrrolidin-3-yl)nicotinamide]
P. aeruginosa expressing IMP-1, efflux+ (MB9798) MITC95 [1]: 12.5 µM | Efflux ratio [1]: 8.00 | Serratia marcescens MITC95 [2]: 1.563 µM | Klebsiella pneumoniae MITC95 [3]: 3.125 µM | Escherichia coli MITC95 [4]: 0.7813 µM | P. aeruginosa expressing IMP-1, efflux− (MB9799) MITC95 [5]: 1.563 µM | pIC50 [6, 9]: 8.02 | pIC50 [7]: 8.20 | pIC50 [8]: 8.45

NCCS(=O)(=O)c1ccc(-c2cccc(-c3c[nH]c(N)n3)c2)c(-c2nnn[nH]2)c1S(N)(=O)=O [Example 346, 3′-(2-Amino-1H-imidazol-4-yl)-4-((2-aminoethyl)sulfonyl)-2-(1H-tetrazol-5-yl)-[1,1′-biphenyl]-3-sulfonamide]
P. aeruginosa expressing IMP-1, efflux+ (MB9798) MITC95 [1]: 6.25 µM | Efflux ratio [1]: 8.00 | Serratia marcescens MITC95 [2]: 1.563 µM | Klebsiella pneumoniae MITC95 [3]: 1.563 µM | Escherichia coli MITC95 [4]: 0.3906 µM | P. aeruginosa expressing IMP-1, efflux− (MB9799) MITC95 [5]: 0.7813 µM | pIC50 [6, 9]: 8.70 | pIC50 [7]: 9.29 | pIC50 [8]: 9.03

CS(=O)(=O)c1ccc([C@H]2CC[C@@H](N)CC2)c(-c2nnn[nH]2)c1S(N)(=O)=O [Example 209, 3-((1s,4s)-4-aminocyclohexyl)-6-(methylsulfonyl)-2-(1H-tetrazol-5-yl) benzenesulfonamide]
P. aeruginosa expressing IMP-1, efflux+ (MB9798) MITC95 [1]: 50 µM | Efflux ratio [1]: 16.00 | Serratia marcescens expressing IMP-1 (CL5741) MITC95 [2]: 6.25 µM | Klebsiella pneumoniae expressing VIM-1 (IHMA599644) MITC95 [3]: 25 µM | Escherichia coli expressing NDM-1 (CLB30016) MITC95 [4]: 3.125 µM | P. aeruginosa expressing IMP-1, efflux− (MB9799) MITC95 [5]: 3.125 µM | pIC50 [6, 9]: 7.19 | pIC50 [7]: 7.78 | pIC50 [8]: 7.28
